This passage reports IC50 and Activity results from ChEMBL document CHEMBL1148590, “Design and synthesis of 3,4-dihydro-1H-[1]-benzothieno[2,3-c]pyran and 3,4-dihydro-1H-pyrano[3,4-b]benzofuran derivatives as non-nucleoside inhibitors of HCV NS5B RNA dependent RNA polymerase” (Bioorg Med Chem Lett, 2006).

Calls of active or inactive are those of the source. The calls are words filed in the database; no cut-off is given here.

Assay [1] addresses RNA-directed RNA polymerase (Hepacivirus hominis, UniProt O39930). The assay is described as follows: Displacement of [alpha-32P]GTP from recombinant HCV NS5B RNA dependent RNA polymerase.
Another assay relates to Huh-7. In words: Cytotoxicity against Huh7 cells by MTS metabolic assay. It is filed as functional, cell-based. As to conditions: Homo sapiens. Background: Tetrazolium dyes change colour on reduction, which living cells bring about.
A further assay has as its target NS3 (Hepatitis C virus, UniProt A3EZJ3). The assay is described as follows: Inhibition of HCV NS3 helicase. Also noted: species or system Hepacivirus hominis.
Assay [2] deals with Human immunodeficiency virus type 1 reverse transcriptase (Human immunodeficiency virus 1, UniProt Q72547). The assay is described as follows: Inhibition of HIV reverse transcriptase.
A further assay concerns Vero. In words: Cytotoxicity against vero cells by MTS metabolic assay. It is filed as functional, cell-based. The conditions noted are these: Chlorocebus sabaeus.
Assay [3] concerns the target T1, DNA polymerase subunit gamma-1 (Homo sapiens) (UniProt P54098).
T1 sequence (whole entry): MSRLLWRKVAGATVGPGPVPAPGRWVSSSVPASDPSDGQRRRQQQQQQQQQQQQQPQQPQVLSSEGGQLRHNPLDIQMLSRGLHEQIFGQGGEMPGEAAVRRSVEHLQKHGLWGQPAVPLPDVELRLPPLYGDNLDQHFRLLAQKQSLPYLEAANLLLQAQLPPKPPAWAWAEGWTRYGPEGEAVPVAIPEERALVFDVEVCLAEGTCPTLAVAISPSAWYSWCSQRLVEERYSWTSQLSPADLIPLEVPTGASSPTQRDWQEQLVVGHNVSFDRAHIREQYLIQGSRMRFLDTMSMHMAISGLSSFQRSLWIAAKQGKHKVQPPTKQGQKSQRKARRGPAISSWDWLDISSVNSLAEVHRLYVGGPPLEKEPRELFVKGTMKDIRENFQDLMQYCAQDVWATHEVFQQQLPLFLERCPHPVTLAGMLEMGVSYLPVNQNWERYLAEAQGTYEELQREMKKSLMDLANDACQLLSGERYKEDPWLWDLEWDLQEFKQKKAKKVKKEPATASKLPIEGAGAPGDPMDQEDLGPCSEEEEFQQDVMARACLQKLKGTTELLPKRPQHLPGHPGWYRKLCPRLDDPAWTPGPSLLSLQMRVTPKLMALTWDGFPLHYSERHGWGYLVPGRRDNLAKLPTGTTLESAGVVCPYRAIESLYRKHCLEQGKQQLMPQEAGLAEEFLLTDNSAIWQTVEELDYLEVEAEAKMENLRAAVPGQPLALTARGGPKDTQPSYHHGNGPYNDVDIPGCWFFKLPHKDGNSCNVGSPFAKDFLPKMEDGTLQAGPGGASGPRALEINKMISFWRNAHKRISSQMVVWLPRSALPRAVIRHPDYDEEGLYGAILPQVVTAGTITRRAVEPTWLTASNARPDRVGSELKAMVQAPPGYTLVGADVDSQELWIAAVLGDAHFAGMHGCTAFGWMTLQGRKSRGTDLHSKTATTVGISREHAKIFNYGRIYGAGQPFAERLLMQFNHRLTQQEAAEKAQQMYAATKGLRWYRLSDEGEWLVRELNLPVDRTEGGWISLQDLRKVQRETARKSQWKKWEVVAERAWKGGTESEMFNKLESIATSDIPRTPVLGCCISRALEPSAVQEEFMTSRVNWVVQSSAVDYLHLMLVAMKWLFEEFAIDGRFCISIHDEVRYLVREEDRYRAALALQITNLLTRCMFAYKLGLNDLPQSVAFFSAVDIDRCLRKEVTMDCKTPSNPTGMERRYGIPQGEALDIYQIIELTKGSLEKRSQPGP
The assay is described as follows: Inhibitory activity against human mitochondrial DNA polymerase gamma upto 50 uM.

RNA-directed RNA polymerase, sequence (O39930 whole entry): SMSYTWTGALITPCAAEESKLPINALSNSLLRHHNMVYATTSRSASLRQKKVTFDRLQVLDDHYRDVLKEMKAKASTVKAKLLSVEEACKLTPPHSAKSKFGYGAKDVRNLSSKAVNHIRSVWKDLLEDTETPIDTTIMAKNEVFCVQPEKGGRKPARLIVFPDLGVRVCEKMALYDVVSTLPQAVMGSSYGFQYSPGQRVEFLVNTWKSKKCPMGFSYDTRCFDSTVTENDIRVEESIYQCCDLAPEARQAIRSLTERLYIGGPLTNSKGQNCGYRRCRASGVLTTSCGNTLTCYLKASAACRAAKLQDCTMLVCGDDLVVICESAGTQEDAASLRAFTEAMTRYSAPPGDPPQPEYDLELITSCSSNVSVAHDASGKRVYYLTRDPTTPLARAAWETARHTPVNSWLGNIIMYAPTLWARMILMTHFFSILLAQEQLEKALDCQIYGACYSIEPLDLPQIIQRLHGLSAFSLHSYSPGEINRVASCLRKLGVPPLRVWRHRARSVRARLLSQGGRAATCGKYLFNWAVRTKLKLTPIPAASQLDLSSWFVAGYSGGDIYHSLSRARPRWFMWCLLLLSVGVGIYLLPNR
NS3, sequence (A3EZJ3 whole entry): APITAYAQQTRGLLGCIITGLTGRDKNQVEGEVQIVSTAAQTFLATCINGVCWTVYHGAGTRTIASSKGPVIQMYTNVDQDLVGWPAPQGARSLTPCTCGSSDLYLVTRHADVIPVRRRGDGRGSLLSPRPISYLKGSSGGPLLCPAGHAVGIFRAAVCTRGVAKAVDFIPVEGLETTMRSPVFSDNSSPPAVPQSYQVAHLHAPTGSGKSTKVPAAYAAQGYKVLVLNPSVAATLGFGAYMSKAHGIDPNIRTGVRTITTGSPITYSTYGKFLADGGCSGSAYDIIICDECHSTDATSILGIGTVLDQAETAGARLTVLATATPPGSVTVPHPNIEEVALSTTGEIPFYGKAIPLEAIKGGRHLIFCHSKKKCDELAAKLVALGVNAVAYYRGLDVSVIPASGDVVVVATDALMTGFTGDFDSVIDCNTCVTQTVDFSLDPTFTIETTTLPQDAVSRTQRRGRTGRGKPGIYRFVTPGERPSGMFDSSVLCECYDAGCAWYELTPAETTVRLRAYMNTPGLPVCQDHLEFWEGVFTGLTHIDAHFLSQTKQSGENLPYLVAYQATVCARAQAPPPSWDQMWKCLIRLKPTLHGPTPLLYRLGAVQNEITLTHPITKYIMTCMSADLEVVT

As to `CCCCC1(CC(=O)O)OCCc2c1sc1c(Cl)ccc(Cl)c21` (stereo not drawn), the concentration for half-maximal inhibition (IC50) in assay [1] was found to be 750 nM.

Turning to `CC1(CC(=O)O)OCCc2c1sc1c(Cl)ccc(Cl)c21` (stereo not drawn), in assay [1], the IC50 was found to be 17600 nM.

Consider `CCCC1(CC(=O)O)OCCc2c1sc1ccccc21` (stereo not drawn), for which the IC50 in assay [1] was over 20000 nM.

Consider `CCC1(CC(=O)O)OCCc2c1sc1c(Cl)ccc(Cl)c21` (stereo not drawn), for which the IC50 in assay [1] was 1900 nM.

Turning to `CC1(CC(=O)O)OCCc2c1oc1c(Cl)ccc(Cl)c21` (stereo not drawn), in assay [1], the IC50 was over 20000 nM.

Regarding `CCC1(CC(=O)O)OCCc2c1oc1c(Cl)ccc(Cl)c21` (stereo not drawn), in assay [1], the 50% inhibitory concentration (IC50) was 16300 nM.

On to `CCC[C@]1(CC(=O)O)OCCc2c1sc1c(C)cc(F)c(C#N)c21`, for which the IC50 in the assay on Huh-7 is over 75000 nM; on NS3 it was over 75000 nM; in assay [2], over 100000 nM; in the assay on Vero, over 75000 nM; in assay [1], 50 nM. Further, the result in assay [3] was inactive.

On to `CCCC1(CC(=O)O)OCCc2c1oc1ccccc21` (stereo not drawn), for which the IC50 in assay [1] is over 20000 nM.

Consider `CCCC1(CC(=O)O)OCCc2c1sc1c(Cl)ccc(Cl)c21` (stereo not drawn), for which, in assay [1], the IC50 was 140 nM.

For the molecule `CCCC1(CC(=O)O)OCCc2c1oc1c(Cl)ccc(Cl)c21` (stereo not drawn), the IC50 in assay [1] is 1490 nM.

With `CCCCC1(CC(=O)O)OCCc2c1oc1c(Cl)ccc(Cl)c21` (stereo not drawn), the IC50 in assay [1] worked out at 4460 nM.

Consider `CCC[C@@]1(CC(=O)O)OCCc2c1sc1c(C)cc(F)c(C#N)c21`, for which, in assay [1], the IC50 stood at 5360 nM.

For the molecule `CCCC1(CC(=O)O)OCCc2c1sc1c(C)cc(F)c(C#N)c21` (stereo not drawn), the IC50 in assay [1] is 130 nM.

As for `CCC[C@]1(CC(=O)O)OCCc2c1sc1c(C)ccc(C#N)c21`, in assay [1], the IC50 was found to be 170 nM.

With `CCCC1(CC(=O)O)OCCc2c1sc1c(C)ccc(C#N)c21` (stereo not drawn), in assay [1], the IC50 turned out to be 320 nM.

For the molecule `CCCC1(CC(=O)O)OCCc2c1sc1c(C)ccc(Br)c21` (stereo not drawn), in assay [1], the IC50 stood at 190 nM.

Turning to `CCC[C@@]1(CC(=O)O)OCCc2c1sc1c(C)ccc(C#N)c21`, the IC50 in assay [1] was determined as 2850 nM.

Turning to `CCCC1(CC(=O)O)OCCc2c1sc1c(C)cc(F)cc21` (stereo not drawn), the 50% inhibitory concentration (IC50) in assay [1] was over 20000 nM.

As usually defined, the IC50 is the point on the concentration scale where inhibition reaches its midpoint.
